Reference: patent publication US8378085B2, “Bacterial ATP synthase binding domain” (priority 2004, dated 2013)
≈ marks a conversion by molar mass, not a printed value. Where “and” joins values, the source holds several entries; their conditions need not be identical. Identical values can stand only once. Like-named read-outs stand apart in the source and are kept apart here.

Key:
M. avium complex [1] = conditions: statement in discussion; cited from earlier work
[2] = tested on: wild type M. tuberculosis; assay type: cell-based, Mycobacterium tuberculosis
[3] = tested on: M. smegmatis transformed with mutant atpE (D32V); assay type: cell-based; conditions: wild-type M. smegmatis transformed with plasmid containing mutant F0 fragment (D32V); MIC practically identical to resistant strain R09
Escherichia coli = assay type: cell-based; conditions: Gram negative Escherichia coli
Haemophilus influenzae = assay type: cell-based; conditions: Gram negative Haemophilus influenzae
M. tuberculosis = test: microbe, parasite or virus in culture; assay type: cell-based; conditions: Mycobacterium tuberculosis
M. abscessus = test: microbe, parasite or virus in culture; assay type: cell-based, Mycobacterium abscessus; conditions: Mycobacteroides abscessus, read-out: MIC Median values
Nocardia = test: microbe, parasite or virus in culture; assay type: cell-based
Streptococcus pneumoniae = assay type: cell-based; conditions: Gram positive Streptococcus pneumoniae
M. avium complex [4] = test: microbe, parasite or virus in culture; assay type: cell-based; conditions: Mycobacterium avium, 7 strains, read-out: MIC Median values
[5] = tested on: M. tuberculosis in log-phase growth; assay type: cell-based, Mycobacterium tuberculosis
M. bovis = test: microbe, parasite or virus in culture; assay type: cell-based; conditions: Mycobacterium tuberculosis variant bovis, read-out: MIC Median values
M. kansasii = test: microbe, parasite or virus in culture; assay type: cell-based; conditions: Mycobacterium kansasii, read-out: MIC Median values
M. smegmatis = test: MIC against M. smegmatis; assay type: cell-based, Mycobacterium smegmatis; conditions: Mycolicibacterium smegmatis, 7 strains, read-out: MIC Median values
Description: Table. 1 The minimum inhibitory concentrations (MICs) of the lead DARQ compound (J), that inhibited 90% of the growth of different mycobacterial species. the number of strains tested were n=1, unless otherwise indicated.

Staphylococcus aureus = test: microbe, parasite or virus in culture; assay type: cell-based; conditions: Staphylococcus aureus including methicillin-resistant strains
Helicobacter pylori = assay type: cell-based; conditions: Gram negative Helicobacter pylori
[6] = tested on: MDR-TB strains and fully drug-susceptible strains; assay type: cell-based, Mycobacterium tuberculosis
Corynebacterium = test: microbe, parasite or virus in culture; assay type: cell-based
Enterococcus faecalis = assay type: cell-based; conditions: Gram positive Enterococcus faecalis
M. marinum = test: microbe, parasite or virus in culture; assay type: cell-based; conditions: Mycobacterium marinum, read-out: MIC Median values
M. fortuitum = test: microbe, parasite or virus in culture; assay type: cell-based, Mycobacterium fortuitum

NNC(=O)c1ccncc1 [isoniazid]
activity against MAC (M. avium complex [1]): no activity | effect on ATP production (total cellular ATP) [2]: no effect

COc1nc2ccc(Br)cc2cc1[C@@H](c1ccccc1)[C@@](O)(CCN(C)C)c1cccc2ccccc12 [J]
susceptibility of transformed cells [3]: resistant | activity (Escherichia coli): not active | activity (Haemophilus influenzae): not active | MIC (M. tuberculosis; H37RV, read-out: MIC Median values): 0.03 µg/mL (≈ 0.054 µM) | MIC (M. tuberculosis; read-out: median MIC): 0.06 µg/mL (≈ 0.108 µM) | MIC (M. abscessus): 0.25 µg/mL (≈ 0.45 µM) | MIC (Nocardia): > 4 µg/mL | activity (Streptococcus pneumoniae): not active | MIC (M. avium complex [4]): 0.01 µg/mL (≈ 0.018 µM) | reduction in bacterial counts [5]: 10^3 log | MIC (M. bovis): 3 ng/mL (≈ 0.0054 µM) | MIC (M. kansasii): 3 ng/mL (≈ 0.0054 µM) | MIC (M. smegmatis): 7 ng/mL (≈ 0.0126 µM) | MIC (Staphylococcus aureus): > 32 µg/mL | activity (Helicobacter pylori): not active | isolates of MDR-TB found susceptible [6]: 43% and 57% | strains with MIC below 0.010 μg/ml [6]: only one of 10 | susceptibility of strains [6]: all strains were susceptible | MIC (Corynebacterium): 4 µg/mL (≈ 7.2 µM) | activity (Enterococcus faecalis): not active | effect on ATP production (total cellular ATP) [2]: dose dependent decrease in ATP production | MIC (M. marinum): 3 ng/mL (≈ 0.0054 µM) | MIC Median values (M. fortuitum; M. fortuitum resistant to fluoroquinolone, 2 strains): 0.010 µg/mL (≈ 0.018 µM) | MIC (M. fortuitum; Mycolicibacterium fortuitum, M. fortuitum, 3 strains, read-out: MIC Median values): 0.01 µg/mL (≈ 0.018 µM)
